Data as given in publication PMC12481569, “Novltex: A New Class of Antibiotics with Potent Activity against Multidrug-Resistant Bacterial Pathogens–Design, Synthesis, and Biological Evaluation” (Journal of Medicinal Chemistry, 2025).
≈ marks a conversion by molar mass, not a printed value. Where “and” joins values, the source holds several entries; their conditions need not be identical. Identical values can stand only once. Positions of bridges follow the written chain, without caps; N, C: chain ends. Non-standard residues stand in square brackets, D forms with d. Residues, ends and D or L forms follow the SMILES beside them. d(aIle) = CC[C@H](C)[C@@H](N)C(=O)O; dChg = N[C@@H](C(=O)O)C1CCCCC1

Legend:
Experiment in all cases: microbe, parasite or virus in culture
MRSA ATCC 33591 = format: cell-based, Staphylococcus aureus; conditions: for MIC against MRSA ATCC 33591: 24 h, two independent duplicates; for fold decrease in antibacterial activity (MIC) compared to analogue 12: MRSA ATCC 33591
Description: (§1) MICs were performed as previously reported 4. For MIC testing all peptides were dissolved in DMSO.
Bacterial cultures were grown overnight on Mueller-Hinton Agar (MHA) plates and adjusted to a final inoculum of 10^5 – 10^6 CFU/mL. 100 µl of ino culum in Meuller -Hinton broth (MHB) was mixed with equal volume of peptides (dissolved in MHB) at 2x their concentration in a 96 well plate . For daptomycin MIC determination, the same protocol was followed with the addition of 50 mg/L calcium chloride to the medium. MIC values were determined in the media contain ing polysorbate 80 (0.002%, v/v) to prevent non -specific adsorption of the peptides to plastic surfaces. The final peptides concentrations ranged from 0.0625 – 32 µg/mL. The 96 well plates were then incubated at 37 °C for 24 h. All the experiments were performed in two independent duplicates and the MIC was determined as the lowest concentration in which no visible growth was observed. […]

[1] = tested on: Multidrug-Resistant (MDR) S. aureus; conditions: MHB, 0.002% polysorbate 80, 37 °C, 24 h, daptomycin with 50 mg/L calcium chloride
Description: (§2) We further evaluated analogue 12 against multidrug-resistant (MDR) strains of S. aureus (acquired from the NARSA collection) and MDR E. faecium (acquired from International Health Management Associates, IHMA, Europe Sarl), comparing its activity to various classes of clinically used antibiotics (Table ).
as §1
(§3) Bacterial cultures were grown overnight on Mueller-Hinton Agar (MHA) plates and adjusted to a final inoculum of 10^5 – 10^6 CFU/mL. 100 µl of ino culum in Meuller -Hinton broth (MHB) was mixed with equal volume of peptides (dissolved in MHB) at 2x their concentration in a 96 well plate . For daptomycin MIC determination, the same protocol was followed with the addition of 50 mg/L calcium chloride to the medium. MIC values were determined in the media contain ing polysorbate 80 (0.002%, v/v) to prevent non -specific adsorption of the peptides to plastic surfaces. The final peptides concentrations ranged from 0.0625 – 32 µg/mL. The 96 well plates were then incubated at 37 °C for 24 h. All the experiments were performed in two independent duplicates and the MIC was determined as the lowest concentration in which no visible growth was observed.
(§4) Antibiotics MIC break points ( µg/mL)
(§5) Table. S4: Susceptibility cut-off values (MIC breakpoints) for various clinical antibiotics. […]

[2] = tested on: Multidrug-Resistant (MDR) E. faecium; conditions: MHB, 0.002% polysorbate 80, 37 °C, 24 h, daptomycin with 50 mg/L calcium chloride
Description: as §2, §1, §3, §4, §5

[3] = broth dilution in MHB with 0.002% v/v polysorbate 80, inoculum 10^5-10^6 CFU/mL, 37 °C, no visible growth, Table 1
[4] = Table 2, MHB with 0.002% polysorbate 80, 37 °C

Compound | MIC against MRSA ATCC 33591 (MRSA ATCC 33591; [3]) | MIC against MRSA ATCC 33591 (MRSA ATCC 33591; [4]) [µg/mL] | further results
CC(C)C[C@@H]1NC(=O)[C@H](C)NC(=O)[C@H](NC(=O)[C@H](CO)NC(=O)[C@H](CCCCN)NC(=O)[C@@H](CC(C)C)NC(=O)[C@H](N)Cc2ccccc2)[C@H](C)OC(=O)[C@H](CC(C)C)NC1=O [analogue 7] | > 32 µg/mL and 32 µg/mL | – | –
CC(C)C[C@@H]1NC(=O)[C@H](C)NC(=O)[C@H](NC(=O)[C@H](CO)NC(=O)[C@H](CCCCN)NC(=O)[C@H](CC(C)C)NC(=O)[C@@H](N)Cc2ccccc2)[C@H](C)OC(=O)[C@H](CC(C)C)NC1=O [analogue 8] | > 32 µg/mL | – | –
CC(C)C[C@@H]1NC(=O)[C@H](C)NC(=O)[C@H](NC(=O)[C@@H](CO)NC(=O)[C@@H](CCCCN)NC(=O)[C@@H](CC(C)C)NC(=O)[C@H](N)Cc2ccccc2)[C@H](C)OC(=O)[C@H](CC(C)C)NC1=O [analogue 9] | 16 µg/mL (≈ 18.3 µM) | – | –
CC[C@H](C)[C@@H]1NC(=O)[C@H](CC(C)C)NC(=O)[C@H](C)NC(=O)[C@H](NC(=O)[C@H](CO)NC(=O)[C@@H](CCCCN)NC(=O)[C@@H](CC(C)C)NC(=O)[C@@H](N)Cc2ccccc2)[C@H](C)OC1=O [analogue 10] (H-F[dL][dK]S[dT]ALI; ester 5-C) | 8 µg/mL (≈ 9.15 µM) | – | –
CC(C)C[C@@H]1NC(=O)[C@H](C)NC(=O)[C@H](NC(=O)[C@H](CO)NC(=O)[C@@H](CCCCN)NC(=O)[C@H](NC(=O)[C@@H](N)Cc2ccccc2)C2CCCCC2)[C@H](C)OC(=O)[C@H](CC(C)C)NC1=O [analogue 11, Leu2Chg–Novltex] (H-F[dChg][dK]S[dT]ALL; ester 5-C) | – | 8 (≈ 8.89 µM) | fold decrease in antibacterial activity (MIC) compared to analogue 12 (MRSA ATCC 33591): 32 fold
CC(C)C[C@@H]1NC(=O)[C@H](C)NC(=O)[C@H](NC(=O)[C@H](CO)NC(=O)[C@@H](CCCCN)NC(=O)[C@@H](Cc2c[nH]c3ccccc23)NC(=O)[C@@H](N)Cc2ccccc2)[C@H](C)OC(=O)[C@H](CC(C)C)NC1=O [analogue 13, Leu2Trp–Novltex] (H-F[dW][dK]S[dT]ALL; ester 5-C) | – | > 32 | –
CC(C)C[C@@H]1NC(=O)[C@H](C)NC(=O)[C@H](NC(=O)[C@H](CO)NC(=O)[C@@H](CCCCN)NC(=O)[C@@H](Cc2ccccc2)NC(=O)[C@@H](N)Cc2ccccc2)[C@H](C)OC(=O)[C@H](CC(C)C)NC1=O [analogue 14, Leu2Phe–Novltex] (H-F[dF][dK]S[dT]ALL; ester 5-C) | – | 8 (≈ 8.81 µM) | –
CC(C)C[C@@H]1NC(=O)[C@H](C)NC(=O)[C@H](NC(=O)[C@H](CO)NC(=O)[C@@H](CCCCN)NC(=O)[C@@H](Cc2ccc(O)cc2)NC(=O)[C@@H](N)Cc2ccccc2)[C@H](C)OC(=O)[C@H](CC(C)C)NC1=O [analogue 15, Leu2Tyr–Novltex] (H-F[dY][dK]S[dT]ALL; ester 5-C) | – | >32 | –
CC[C@H](C)[C@@H](NC(=O)[C@@H](N)Cc1ccccc1)C(=O)N[C@H](CCCCN)C(=O)N[C@@H](CO)C(=O)N[C@H]1C(=O)N[C@@H](C)C(=O)N[C@@H](CC(C)C)C(=O)N[C@@H](CC(C)C)C(=O)O[C@H]1C [analogue 16, Leu2 D-allo-Ile–Novltex] (H-F[d(aIle)][dK]S[dT]ALL; ester 5-C) | – | 16 (≈ 18.3 µM) | fold decrease in antibacterial activity (MIC) compared to analogue 12 (MRSA ATCC 33591): 64 fold
Clovibactin | – | – | MIC, Staphylococcus aureus NR 45914 ([1]; MDR strain NR 45914): 0.063 µg/mL; MIC, Staphylococcus aureus NR 45926 ([1]; MDR strain NR 45926): 0.063 µg/mL; MIC, Staphylococcus aureus NR 45930 ([1]; MDR strain NR 45930): 0.25 µg/mL; MIC, Staphylococcus aureus NR 46062 ([1]; MDR strain NR 46062): 0.063 µg/mL; MIC, Enterococcus faecium 1563254 ([2]; MDR clinical isolate 1563254): 0.063 µg/mL; MIC, Enterococcus faecium 1581582 ([2]; MDR clinical isolate 1581582): 0.25 µg/mL; MIC, Enterococcus faecium 1766686 ([2]; MDR clinical isolate 1766686): 0.25 µg/mL
